Laboratory results from PMC11050816, “Pharmacokinetics and Safety of Lurbinectedin Administrated with Itraconazole in Cancer Patients: A Drug–Drug Interaction Study” (Marine Drugs, 2024).

Experiment: Safety assessment: adverse events and laboratory abnormalities graded by NCI-CTCAE v. 5.0
Type: in vivo, human
Source text: Safety analyses included all 14 patients who received at least one dose of lurbinectedin (Part A, n = 3; Part B, n = 11). Thirteen of the fourteen treated patients (three in Part A and ten in Part B) received itraconazole plus lurbinectedin in Cycles 1 or 2, and all fourteen treated patients (three in Part A and 11 in Part B) received lurbinectedin alone in Cycles 1, 2, or 3.
The study consisted of two parts.
Safety evaluations included assessments of AEs, clinical laboratory tests, deaths, vital signs measurements, and physical examinations. TEAEs were defined as any AE that worsened in severity from baseline or having their onset between the first dose of the study drug and 31 days (±10 days) after the last dose, death, or date of further therapy. AEs were coded based on the Medical Dictionary for Regulatory Activities (MedDRA) v. 23.0 and graded as per the National Cancer Institute–Common Terminology Criteria for Adverse Events (NCI-CTCAE) v. 5.0.

[1] = Part B (LRB 0.9 mg/m^2 with ITZ, 3.2 mg/m^2 alone), all grades
[2] = Part B (LRB 0.9 mg/m^2 with ITZ, 3.2 mg/m^2 alone), grade 3
[3] = Part B (LRB 0.9 mg/m^2 with ITZ, 3.2 mg/m^2 alone), grade 4

COc1ccc2[nH]c3c(c2c1)CCN[C@]31CS[C@@H]2c3c(OC(C)=O)c(C)c4c(c3[C@H](COC1=O)N1[C@@H]2[C@H]2c3c(cc(C)c(OC)c3O)C[C@@H]([C@@H]1O)N2C)OCO4 [lurbinectedin]
Constipation (treatment-emergent AE, regardless of relationship) (Part A, all grades): 1 (33) n (%) of patients
Dysgeusia (treatment-emergent AE, regardless of relationship) (Part A, all grades): 1 (33) n (%) of patients
Fatigue (treatment-emergent AE, regardless of relationship) (Part A, all grades): 1 (33) n (%) of patients
Pleural effusion (treatment-emergent AE, regardless of relationship) (Part A, all grades): 1 (33) n (%) of patients
Vomiting (treatment-emergent AE, regardless of relationship) (Part A, all grades): 1 (33) n (%) of patients
Pleural effusion (treatment-emergent AE, regardless of relationship) (Part A, grade 3): 1 (33) n (%) of patients
ALT increased (biochemical laboratory abnormality, regardless of relationship) [1]: 9 (82) n (%) of patients
Acute kidney injury (treatment-related AE) [1]: 1 (9) n (%) of patients
Anemia (hematological laboratory abnormality, regardless of relationship) [1]: 9 (82) n (%) of patients
CPK increased (biochemical laboratory abnormality, regardless of relationship) [1]: 1 (9) n (%) of patients
Fatigue (treatment-related AE) [1]: 2 (18) n (%) of patients
GGT increased (biochemical laboratory abnormality, regardless of relationship) [1]: 4 (36) n (%) of patients
Leukopenia (hematological laboratory abnormality, regardless of relationship) [1]: 8 (73) n (%) of patients
Lymphopenia (hematological laboratory abnormality, regardless of relationship) [1]: 9 (82) n (%) of patients
Nausea (treatment-related AE) [1]: 5 (45) n (%) of patients
Neutropenia (hematological laboratory abnormality, regardless of relationship) [1]: 8 (73) n (%) of patients
Rhabdomyolysis (treatment-related AE) [1]: 1 (9) n (%) of patients
Thrombocytopenia (hematological laboratory abnormality, regardless of relationship) [1]: 8 (73) n (%) of patients
Vomiting (treatment-related AE) [1]: 3 (27) n (%) of patients
Acute kidney injury (treatment-related AE) [2]: 1 (9) n (%) of patients
Anemia (hematological laboratory abnormality, regardless of relationship) [2]: 1 (9) n (%) of patients
GGT increased (biochemical laboratory abnormality, regardless of relationship) [2]: 1 (9) n (%) of patients
Leukopenia (hematological laboratory abnormality, regardless of relationship) [2]: 5 (45) n (%) of patients
Lymphopenia (hematological laboratory abnormality, regardless of relationship) [2]: 2 (18) n (%) of patients
Neutropenia (hematological laboratory abnormality, regardless of relationship) [2]: 5 (45) n (%) of patients
Rhabdomyolysis (treatment-related AE) [2]: 1 (9) n (%) of patients
Vomiting (treatment-related AE) [2]: 1 (9) n (%) of patients
CPK increased (biochemical laboratory abnormality, regardless of relationship) [3]: 1 (9) n (%) of patients
Leukopenia (hematological laboratory abnormality, regardless of relationship) [3]: 1 (9) n (%) of patients
Lymphopenia (hematological laboratory abnormality, regardless of relationship) [3]: 1 (9) n (%) of patients
Neutropenia (hematological laboratory abnormality, regardless of relationship) [3]: 3 (27) n (%) of patients
Thrombocytopenia (hematological laboratory abnormality, regardless of relationship) [3]: 1 (9) n (%) of patients
Acute kidney injury (treatment-emergent AE, regardless of relationship) (Part B, all grades): 1 (9) n (%) of patients
Deep vein thrombosis (treatment-emergent AE, regardless of relationship) (Part B, all grades): 1 (9) n (%) of patients
Diarrhea (treatment-emergent AE, regardless of relationship) (Part B, all grades): 1 (9) n (%) of patients
Fatigue (treatment-emergent AE, regardless of relationship) (Part B, all grades): 2 (18) n (%) of patients
Intestinal pseudo-obstruction (treatment-emergent AE, regardless of relationship) (Part B, all grades): 1 (9) n (%) of patients
Nausea (treatment-emergent AE, regardless of relationship) (Part B, all grades): 5 (45) n (%) of patients
Respiratory failure (treatment-emergent AE, regardless of relationship) (Part B, all grades): 1 (9) n (%) of patients
Rhabdomyolysis (treatment-emergent AE, regardless of relationship) (Part B, all grades): 1 (9) n (%) of patients
Small intestinal obstruction (treatment-emergent AE, regardless of relationship) (Part B, all grades): 1 (9) n (%) of patients
Stomatitis (treatment-emergent AE, regardless of relationship) (Part B, all grades): 1 (9) n (%) of patients
Vomiting (treatment-emergent AE, regardless of relationship) (Part B, all grades): 3 (27) n (%) of patients
Acute kidney injury (treatment-emergent AE, regardless of relationship) (Part B, grade 3): 1 (9) n (%) of patients
Deep vein thrombosis (treatment-emergent AE, regardless of relationship) (Part B, grade 3): 1 (9) n (%) of patients
Rhabdomyolysis (treatment-emergent AE, regardless of relationship) (Part B, grade 3): 1 (9) n (%) of patients
Small intestinal obstruction (treatment-emergent AE, regardless of relationship) (Part B, grade 3): 1 (9) n (%) of patients
Vomiting (treatment-emergent AE, regardless of relationship) (Part B, grade 3): 1 (9) n (%) of patients
Patients with lurbinectedin dose reduction due to AEs (during treatment with lurbinectedin alone (grade 3 ALT increase; grade 4 neutropenia)): Two
Patients who discontinued treatment due to a treatment-related serious AE (grade 3 rhabdomyolysis, Cycle 2 of Part B (Sequence 1), lurbinectedin alone): one
